Read-outs that look alike come from different tables or passages of the source.
Columns and labels:
MACV-p = assay: organism not typed; format: cell-based, Machupo (MACV); conditions: Vero, read-out: MACV-p EC50
TCRV-p = assay: organism not typed; format: cell-based; conditions: read-out: TCRV-p EC50
LASV-p = assay: microbe, parasite or virus in culture; format: cell-based, Lassa (LASV); conditions: Vesicular stomatitis virus, Vero, read-out: LASV-p EC50
VSV-p = assay: microbe, parasite or virus in culture; format: cell-based; conditions: Vesicular stomatitis virus, Vero, read-out: VSV-p EC50
JUNV-p = assay: organism not typed; format: cell-based, Junin (JUNV); conditions: Vero, read-out: JUNV-p EC50
in vitro = conditions: African green monkey
[1] = guinea pig, 1 h, pH 7.4
[2] = 1 h, pH 7.4
[3] = 1 h, pH 7.4; remark: listed apart in the source
replicative LASV = assay: microbe, parasite or virus in culture; format: cell-based, Lassa Virus; conditions: for EC90: Mammarenavirus lassaense

| Compound | EC50 (MACV-p) | EC50 (TCRV-p; Vero) | EC50 (LASV-p) | EC50 (VSV-p) | EC50 (JUNV-p) | CC50 (in vitro) | Percent parent compound remaining at 60 minutes in liver microsomes, Guinea [1] | Percent parent compound remaining at 60 minutes in liver microsomes, Human [2] | Percent parent compound remaining at 60 minutes in liver microsomes, Mouse [3] | EC50 (TCRV-p) | Sl90 (replicative LASV) | EC90 (replicative LASV; Vero, read-out: VYR Assay EC90) | EC90 (replicative LASV; read-out: EC90 in the VYR assay format) |
| --- | --- | --- | --- | --- | --- | --- | --- | --- | --- | --- | --- | --- | --- |
| Cc1cc2ncc(-c3ccc(C(C)(C)O)cc3)n2cc1-c1ccc(C(C)(C)O)cc1 [Example B9, 2,2′-((7-methylimidazo[1,2-a]pyridine-3,6-diyl)bis(4,1-phenylene))bis(propan-2-ol)] | > 25 nM | 16.1 nM | > 25 nM | > 10000 nM | > 25 nM |  |  |  |  |  |  |  |  |
| COC(=O)c1cc2nnn(-c3ccc(OC(C)C)cc3)c2cc1-c1ccc(OC(C)C)cc1 [Example C10, methyl 1,6-bis(4-isopropoxyphenyl)-1H-benzo[d][1,2,3]triazole-5-carboxylate] | 4.05 nM | 12.3 nM | 20.6 nM | > 10000 nM | 11 nM | > 100000 nM |  |  |  |  |  |  |  |
| CC(C)Oc1ccc(-c2ccc3nnn(-c4ccc(OC(C)C)cc4)c3c2F)cc1 [Example C12, 7-fluoro-1,6-bis(4-isopropoxyphenyl)-1H-benzo[d][1,2,3]triazole] | 0.55 nM | 15 nM | 1.31 nM | > 10000 nM | 0.15 nM | > 100000 nM | >95% | >95% | 90.3% |  |  |  |  |
| CC(C)Oc1ccc(-c2cc3c(cc2F)nnn3-c2ccc(OC(C)C)cc2)cc1 [Example C13, 5-fluoro-1,6-bis(4-isopropoxyphenyl)-1H-benzo[d][1,2,3]triazole] | 0.66 nM | 1.53 nM | 4 nM | > 10000 nM | 0.27 nM | > 100000 nM |  | 79.5% |  |  |  |  |  |
| COc1cc2nnn(-c3ccc(OC(C)C)cc3)c2cc1-c1ccc(OC(C)C)cc1 [Example C15, 1,6-bis(4-isopropoxyphenyl)-5-methoxy-1H-benzo[d][1,2,3]triazole] | 7.09 nM | 11.4 nM | 23.4 nM | > 10000 nM | 3.06 nM | 98400 nM |  |  |  |  |  |  |  |
| CC(C)Oc1ccc(-n2nnc3ccc(-c4cccc(C(C)(C)O)c4)cc32)cc1 [Example C17, 2-(3-(1-(4-isopropoxyphenyl)-1H-benzo[d][1,2,3]triazol-6-yl)phenyl)propan-2-ol] | > 25 nM | > 25 nM | 15.8 nM | > 10000 nM | 12.2 nM | 10500 nM |  |  |  |  |  |  |  |
| CC(C)Oc1ccc(-n2nnc3ccc(-c4cccc(OC(C)C)c4)cc32)cc1 [Example C18, 6-(3-isopropoxyphenyl)-1-(4-isopropoxyphenyl)-1H-benzo[d][1,2,3]triazole] | > 25 nM | > 25 nM | > 25 nM | > 10000 nM | > 25 nM |  |  |  |  |  |  |  |  |
| CC(C)Oc1ccc(-c2cc3c(cc2CO)nnn3-c2ccc(OC(C)C)cc2)cc1 [Example C19, (1,6-bis(4-isopropoxyphenyl)-1H-benzo[d][1,2,3]triazol-5-yl)methanol] | 3.82 nM | 8 nM | 22.5 nM | > 10000 nM | 0.75 nM | 81700 nM |  |  |  |  |  |  |  |
| CC(C)Oc1ccc(-c2cc3c(cc2C(=O)O)nnn3-c2ccc(OC(C)C)cc2)cc1 [Example C20, 1,6-bis(4-isopropoxyphenyl)-1H-benzo[d][1,2,3]triazole-5-carboxylic acid] | > 25 nM | > 25 nM | > 25 nM | > 10000 nM | > 25 nM |  |  |  |  |  |  |  |  |
| CC(C)Oc1ccc(-c2cc3c(cc2C(N)=O)nnn3-c2ccc(OC(C)C)cc2)cc1 [Example C21, 1,6-bis(4-isopropoxyphenyl)-1H-benzo[d][1,2,3]triazole-5-carboxamide] | > 25 nM | > 25 nM | > 25 nM | > 10000 nM | > 25 nM |  |  |  |  |  |  |  |  |
| CC(C)Oc1ccc(-c2cc3c(cc2CN)nnn3-c2ccc(OC(C)C)cc2)cc1 [Example C22, (1,6-bis(4-isopropoxyphenyl)-1H-benzo[d][1,2,3]triazol-5-yl)methanamine] | > 25 nM | > 25 nM | > 25 nM | > 10000 nM | > 25 nM |  |  |  |  |  |  |  |  |
| CC(C)Oc1ccc(-c2cc3c(cc2N)nnn3-c2ccc(OC(C)C)cc2)cc1 [Example C23, 1,6-bis(4-isopropoxyphenyl)-1H-benzo[d][1,2,3]triazol-5-amine] | 0.53 nM | 0.96 nM | 6.72 nM | > 10000 nM | 0.29 nM | 43000 nM |  |  |  |  |  |  |  |
| COc1cc2nnn(-c3ccc(O)cc3)c2cc1-c1ccc(O)cc1 [Example C24, 4,4′-(5-methoxy-1H-benzo[d][1,2,3]triazole-1,6-diyl)diphenol] | > 25 nM | 18.4 nM | 4.62 nM | > 10000 nM | 19 nM | 32200 nM |  |  |  |  |  |  |  |
| C=Cc1cc2nnn(-c3ccc(OC(C)C)cc3)c2cc1-c1ccc(OC(C)C)cc1 [Example C25, 1,6-bis(4-isopropoxyphenyl)-5-vinyl-1H-benzo[d][1,2,3]triazole] | 0.3 nM | 8.01 nM | 6.78 nM | > 10000 nM | 1.47 nM | 3870 nM |  |  |  |  |  |  |  |
| CCc1cc2nnn(-c3ccc(OC(C)C)cc3)c2cc1-c1ccc(OC(C)C)cc1 [Example C26, 5-ethyl-1,6-bis(4-isopropoxphenyl)-1H-benzo[d][1,2,3]triazole] | 0.04 nM | 5.92 nM | 3.9 nM | > 10000 nM | 0.1 nM | 3590 nM |  |  |  |  |  |  |  |
| Cc1nc2ncc(-c3ccc(OC(C)C)cc3)n2cc1-c1ccc(OC(C)C)cc1 [Example D27, 3,6-bis(4-isopropoxyphenyl)-7-methylimidazo[1,2-a]pyrimidine] | 0.85 nM | 0.2 nM | 0.75 nM | > 10000 nM | 0.78 nM | 2180 nM |  |  |  |  |  |  |  |
| Cc1nc2ncc(-c3ccc(OC(C)(C)C)cc3)n2cc1-c1ccc(OC(C)C)cc1 [Example D28, 3-(4-(tert-butoxy)phenyl)-6-(4-isopropoxyphenyl)-7-methylimidazo[1,2-a]pyrimidine] | 0.31 nM | 0.15 nM | 0.3 nM | > 10000 nM | 0.4 nM | 12300 nM |  |  |  |  |  |  |  |
| Cc1nc2ncc(-c3ccc(C(C)(C)O)cc3)n2cc1-c1ccc(OC(C)C)cc1 [Example D29, 2-(4-(6-(4-isopropoxphenyl)-7-methylimidazo[1,2-a]pyrimidin-3-yl)phenyl)propan-2-ol] | 0.87 nM | 1.27 nM | 1.84 nM | > 10000 nM | 1.03 nM | 42100 nM |  |  |  |  |  |  |  |
| [2H]C([2H])([2H])C([2H])(Oc1ccc(-c2cn3c(-c4ccc(OC(C)(C)C)cc4)cnc3cc2C)cc1)C([2H])([2H])[2H] [Example E30, 3-(4-(tert-butoxy)phenyl)-6-(4-(isopropoxy-d7)phenyl)-7-methylimidazo[1,2-a]pyridine] | 0.09 nM |  | 0.39 nM |  | 0.09 nM | 3800 nM |  |  |  | 0.2 nM | >1,510 | < 14 nM | < 14 nM |

From patent US12419865B2 (priority 2018, dated 2025)
